How the values were obtained:
BAR-T cells [1] = assay: Real-time RT-PCR mRNA expression, normalized to β actin; format: cell-based, human; settings: for molecular changes (mRNA), particularly transformation marker TC22: A alone (pH4) up to 34 weeks
Experimental: (§1) Cell line medium and cell culture—BAR-T cells were grown in special supplemented keratinocyte medium (KBM2) from Cambrex Bioscience (East Rutherford, N.J., USA), as per the protocol described by Jaiswal et al. Hydrochloric acid (A) was used to adjust the pH of the culture medium to experimental conditions. The bile acid, glycochenodeoxycholic acid, GCDA (Sigma, St. Louis, […]., USA), was diluted to optimum working concentration of 200 μM (B) with the culture medium adjusted to pH4 (A+B). 0.1×10^6 cells growing on six-well plates were incubated in A or A+B for 5 min in 24 h. For chronic exposure, cells were exposed for 5 min everyday to A only for up to 34 weeks and A+B for up to 84 weeks. No treatment was done on the day the cells were passed. The time was optimized from similar studies, showing that 5 min was sufficient for induction of signal transduction pathways regulating cellular machinery without cell damage. The cells were rinsed with phosphate buffered saline (PBS) before and after incubation with desired treatment medium. The control untreated cells were grown in parallel in the special medium as mentioned above at pH7.4. A portion of the cells were harvested every 4-6 weeks. Morphological Changes and Growth analysis—BAR-T cells that were exposed to A+B at various weeks were plated at 1×10^5 cells per well in 12 well plates and counted in triplicate using a Beckman Coulter Counter (Vi-CELL1.00). Cells were counted periodically and morphological changes were examined weekly. Foci assay: Cells were plated at 5×10^5 cells per 100 mm dishes (35). Untreated cells grown in parallel were also plated. Cells were grown for 4-5 weeks with regular medium changes beyond 100% confluency, fixed with 10% methanol, 10% acetic acid solution, and stained with 20% ethanol, 0.4% crystal violet for 5 min. Growth in soft agar: Each well of the six well plates was layered with base agar layer containing 0.8% agar in grown medium. […] Large (>1 mm) and small colonies (<1 mm) were visually identified, photographed and counted separately. […]

BAR-T cells [2] = assay: Morphological changes; format: cell-based, human
Experimental: as §1, with “The cells were rinsed with phosphate buffered saline (PBS) before and after incubation with desired treatment medium. The control untreated cells were grown in parallel in the special medium as mentioned above at pH7.4. A portion of the cells were harvested every 4-6 weeks.” left out, “weekly.” for “weekly. Foci assay: Cells were plated at 5×10^5 cells per 100 mm dishes (35). Untreated cells grown in parallel were also plated. Cells were grown for 4-5 weeks with regular medium changes beyond 100% confluency, fixed with 10% methanol, 10% acetic acid solution, and stained with 20% ethanol, 0.4% crystal violet for 5 min. Growth in soft agar: Each well of the six well plates was layered with base agar layer containing 0.8% agar in grown medium.”

| SMILES | molecular changes (mRNA), particularly transformation marker TC22 (BAR-T cells [1]) | molecular changes (mRNA), particularly transformation marker TC22 (BAR-T cells [1]; listed as Acid (pH4)) | P53 expression (BAR-T cells [1]; A alone up to 34 weeks) | morphological changes (BAR-T cells [2]; chronic exposure to A alone, up to 34 weeks) | effect on BAR-T cells (BAR-T cells [2]; B alone up to 6 weeks, initial study) |
| --- | --- | --- | --- | --- | --- |
| Cl [A, Hydrochloric acid] | did not show the above molecular changes | remained mostly unchanged | minor increase | did not show any morphological changes |  |
| CC(CCC(=O)NCC(=O)O)C1CCC2C3C(O)CC4CC(O)CCC4(C)C3CCC12C (centres unmarked) [B, glycochenodeoxycholic acid, reference compound] |  |  |  |  | no appreciable effect |
